The test system of assay [1] is Ljungan-like virus. Briefly: Immunohistochemistry for LV VP1 antigen in pancreas tissue of treated DP-BB rats (Example 1). The format is in vivo, rat. Conditions: for Non-infected (number of animals, viral antigen in pancreas by IHC) / Infected (number of animals, viral antigen in pancreas by IHC): Pleconaril 100 mg/kg, Efavirenz 30 mg/kg daily from 45 to 60 days of age; for Non-infected (number of animals, viral antigen in pancreas by IHC): control 0 of 9 non-infected; for Infected (number of animals, viral antigen in pancreas by IHC): control 9 of 9 infected; for effect on clearing the infection (in words): pancreas tissue following treatment. As to the method:
DP-BB rats were obtained from the breeding colony maintained at the Karolinska Institute (Solna, Sweden). The animals were housed under Specific Pathogen Free conditions in a temperature- and humidity-controlled room with 12 hour light dark cycles. They were fed R36 diet and water ad libitum. Animals of both genders were used. The overall incidence of diabetes among the DP rats used in the colony study is 100% with 60 days as the mean age of onset.
Antiviral agents (pleconaril and efavirenz) were administered to the animals in a dose of 100 mg/kg and 30 mg/kg body weight for Pleconaril and Efavirenz, respectively. Treatment was given daily using formulation containing the vehicle 0.4% (v/v) Tween 80+2% (v/v) glycerol+15% (w/v) Hydroxypropyl-beta-cyclodextrin.
Four experimental treatment groups consisted of six rats given pleconaril, six given Efavirenz, eight given a combination of both compounds, and nine given the vehicle solution and serving as a control. All four groups began treatment at 45 days of age and treatment was maintained until 60 days of age when animals were sacrificed.
Formalin fixed paraffin embedded pancreas tissue were analyzed by immunohistochemistry. The tissues were fixed in 4% formalin and embedded in paraffin as described previously with minor modifications (Shi et al., 1991), (Shi, 1997). Presence of LV specific antigen was visualized using a polyclonal recombinant LV VP1 raised in rabbits (Tolf, 2008). As control we used serum from a rabbit immunized using the same protocol but with the carrier GST protein only. Tissues from LV-infected and non-infected animals were included as controls. The specificity of the rabbit antibodies were verified by analyzing control specimens generated by mixing infected tissue culture cells with non-infected cells followed by formalin fixation and paraffin imbedding. The specificity of the reaction was also confirmed by blocking the signal with LV antigen in parallel with control antigen.
Pancreas tissue was also analysed using the PCR assay described by Donoso Mantke and co-workers (Donoso Mantke et al., 2007).

In assay [2] the test system is DP BB rats. The note with it: group B, Pleconaril alone 100 mg/kg BW once daily for 30 days, previously reported (Niklasson et al., 2016), control 59 (7), cited from earlier work.

These results are taken from patent US20220273624A1, “NOVEL ANTIVIRAL THERAPIES” (NIKLOVIR AB, priority 2019, published 2022).

Read-outs that look alike come from different tables or passages of the source.

Take `O=C1Nc2ccc(Cl)cc2[C@@](C#CC2CC2)(C(F)(F)F)O1` [Efavirenz, (4S)-6-chloro-4-(2-cyclopropylethynyl)-4-(trifluoromethyl)-1H-3,1-benz-oxazin-2-one]: in assay [1], the “Non-infected (number of animals, viral antigen in pancreas by IHC)” value is reported as 0; the “Infected (number of animals, viral antigen in pancreas by IHC)” value is recorded as 6; the “effect on clearing the infection (in words)” value is recorded as “essentially no effect”.
As to `Cc1cc(CCCOc2c(C)cc(-c3noc(C(F)(F)F)n3)cc2C)on1` [Pleconaril, 3-[3,5-dimethyl-4-[3-(3-methylisoxazol-5-yl)propoxy]phenyl]-5-(trifluoro-methyl)-1,2,4-oxadiazole], in assay [1], the “Non-infected (number of animals, viral antigen in pancreas by IHC)” value stood at 2; the “Infected (number of animals, viral antigen in pancreas by IHC)” value stood at 4; the “effect on clearing the infection (in words)” value was “only a modest effect on clearing the infection”. The “Mean diab onset day (SD)” value in assay [2] (listed as Plec) was 62 (8) day. The “Mean diab onset day (SD)” value in assay [2] is recorded as 62 (SD 8) day.
